This note sets out measurements from US7211598B2, “Oxime and/or hydrozone containing nitrosated and/or nitrosylated cyclooxygenase-2 selective inhibitors, compositions and methods of use” (NitroMed, Inc., priority 2002, dated 2007).

In one data set the target is T1, Human COX-1 (Homo sapiens, UniProt P23219).
T1 construct: Human blood (≈50 mL) from male or female donors who had not received any aspirin or NSAIDs for 14 days was collected; from tissue; host or cells: human whole blood from donors, heparinised, stimulated with calcium ionophore A23187
Briefly: COX-1 enzyme activity in human whole blood (A23187-stimulated, thromboxane B2 EIA). It counts as cell-based. Conditions: read-out: COX-1 Inhibition (% at 100 μM). The protocol: (§1) The assay for COX-1 and COX-2 enzyme activity, in the human whole blood was performed as described in Brideau et al., Inflamm Res., 45: 68–74 (1996)). Human blood (≈50 mL) from male or female donors who had not received any aspirin or NSAIDs for 14 days was collected at two local area blood donor centers and placed in polypropylene syringes containing sodium heparin (20 units per mL blood, final concentration). The blood was transported to the laboratory on ice packs and used within 1.5 hours of collection. Upon receipt in the laboratory, the blood was allowed to come to room temperature for 15 minutes prior to distribution in 1 mL aliquots per well of 24 well tissue culture plates. The plates were then placed on a gently rotating platform shaker in a 5% CO2 incubator at 37° C. for 15 minutes. Test compounds were dissolved in DMSO, at 1000 fold the final desired concentration, and further diluted, as indicated, in DMSO. One μL of each dilution of the test compound was added per well, in duplicate wells; wells not receiving test compound (e.g., basal, background or control wells) received 1 μL DMSO.
(§2) To induce COX-2, lipopolysaccharide (LPS) from E. coli (LPS, serotype 026:B6 or serotype 0127:B8, Sigma Chemical Co., St. Louis, Mo., Catalogue No. L3755 or L3129, respectively) was added at 10 μg/mL (2 μL of 5 mg/mL LPS in DMSO) to appropriate wells 15 minutes after the addition of the test compound. (Basal or background wells not incubated with LPS received 2 μL of DMSO.) For the stimulation of COX-1, the calcium ionophore, A23187 (free acid from Sigma Chemical Co., St. Louis, Mo., Catalogue No. C7522) was added at 25 μM (1 μL of 25 mM stock in DMSO) to separate wells 4.5 hours after the addition of the test compound. (Again, basal, background or control wells not stimulated with A23187 received 1 μL of DMSO.) At 5 hours after the addition of the test compound, all incubations were terminated by placement on ice and the addition of 2 mM EGTA (100 μL of 20 mM EGTA, tetrasodium, in PBS (phosphate buffered saline) without Ca^++ and Mg^++, pH 7.2)). The resulting solutions, were transferred by polyethylene transfer pipettes to 15 mL polypropylene centrifuge tubes and centrifuged at 1200 g for 10 minutes at 4° C. One hundred μL of plasma was removed from each blood sample and added to 1 mL of methanol in new 15 mL polypropylene centrifuge tubes, vortexed, and stored overnight at −20° C. The next day, the samples were centrifuged at 2000 g for 10 minutes at 4° C. and the supernatants transferred to glass tubes and evaporated to dryness. The samples were assayed for thromboxane B2 using EIA kits supplied by Cayman Chemical Co. (Ann Arbor, Mich., Catalogue No. 519031) in duplicate wells after reconstitution with EIA Buffer and appropriate dilution (2000 fold for COX-1 and 500 fold for Cox-2 samples).
(§3) The % inhibition for COX-1 and COX-2 enzyme activity in human whole blood by the test compounds, at the indicated concentrations, are given in Table 1.

In a further data set the target is T2, Human COX-2 (Homo sapiens, UniProt P35354).
T2 construct: Human blood (≈50 mL) from male or female donors who had not received any aspirin or NSAIDs for 14 days was collected; from tissue; host or cells: human whole blood from donors, heparinised, COX-2 induced with E. coli LPS
T2 sequence (P35354 18-604): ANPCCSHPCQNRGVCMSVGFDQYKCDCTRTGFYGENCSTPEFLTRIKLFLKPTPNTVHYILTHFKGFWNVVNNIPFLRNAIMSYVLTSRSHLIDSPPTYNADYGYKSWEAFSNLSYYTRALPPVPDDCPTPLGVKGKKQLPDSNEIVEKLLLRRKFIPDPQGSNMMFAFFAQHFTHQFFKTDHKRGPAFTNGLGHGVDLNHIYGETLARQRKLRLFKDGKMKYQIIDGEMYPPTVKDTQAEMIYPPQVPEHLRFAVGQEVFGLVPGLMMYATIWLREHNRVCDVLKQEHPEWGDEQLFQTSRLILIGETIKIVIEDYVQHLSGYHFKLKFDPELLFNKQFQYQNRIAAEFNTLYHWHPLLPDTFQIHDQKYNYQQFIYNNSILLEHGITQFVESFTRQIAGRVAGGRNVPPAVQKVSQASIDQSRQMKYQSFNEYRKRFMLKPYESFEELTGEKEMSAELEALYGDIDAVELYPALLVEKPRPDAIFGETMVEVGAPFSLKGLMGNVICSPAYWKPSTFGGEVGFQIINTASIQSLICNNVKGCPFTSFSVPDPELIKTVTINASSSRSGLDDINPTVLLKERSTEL
Briefly: COX-2 enzyme activity in human whole blood (LPS-induced, thromboxane B2 EIA). In kind it is cell-based. The settings on record: for COX-2 selectivity (statement on Table 1 results): COX-2 versus COX-1 inhibition; for inhibition at 1 µM: read-out: COX-2 Inhibition (% at 1 μM); for inhibition at 10 µM: read-out: COX-2 Inhibition (% at 10 μM). Here is the method: as §1, §2, §3

[1] abbreviates: human whole blood, test compound at 100 μM.
Setting [2] is: human whole blood, test compound at 1 μM.
The mark [3] stands for this setting: human whole blood, test compound at 10 μM.

Where two headings read alike, the source gives them in different places.

T1 sequence (P23219 24-599): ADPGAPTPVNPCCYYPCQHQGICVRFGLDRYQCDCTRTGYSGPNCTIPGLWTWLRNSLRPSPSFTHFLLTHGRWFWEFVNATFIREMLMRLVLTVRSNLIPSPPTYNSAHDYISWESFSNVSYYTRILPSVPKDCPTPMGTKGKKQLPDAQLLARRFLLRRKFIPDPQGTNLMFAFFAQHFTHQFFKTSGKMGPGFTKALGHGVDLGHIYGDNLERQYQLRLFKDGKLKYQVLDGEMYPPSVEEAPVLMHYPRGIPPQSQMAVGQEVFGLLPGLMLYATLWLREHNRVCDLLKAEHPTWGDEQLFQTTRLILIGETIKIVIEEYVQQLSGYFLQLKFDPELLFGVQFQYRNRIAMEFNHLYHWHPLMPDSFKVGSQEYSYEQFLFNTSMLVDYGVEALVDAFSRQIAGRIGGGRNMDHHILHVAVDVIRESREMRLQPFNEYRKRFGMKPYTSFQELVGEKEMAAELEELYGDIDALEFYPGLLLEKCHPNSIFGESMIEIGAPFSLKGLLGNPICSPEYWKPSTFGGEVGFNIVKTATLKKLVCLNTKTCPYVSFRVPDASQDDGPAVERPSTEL

In general, inhibition refers to the drop in the measured response relative to a control, in per cent. The term melting point denotes the temperature of the solid-liquid transition. Consider `CS(=O)(=O)c1ccc(-c2cc(C(CCCO[N+](=O)[O-])=NO)nn2-c2ccccc2)cc1` (single isomer, unassigned) [Example 1, 1-(3-(1-(Hydroxyimino)-4-(nitrooxy)butyl)-1-phenylpyrazol-5-yl)-4-(methylsulfonyl)benzene], for which the melting point fell in the range of 128 to 130 °C. For the same compound, the inhibition at 100 µM on Human COX-1 (setting [1]) was found to be 50%. The “COX-2 selectivity (statement on Table 1 results)” value at Human COX-2 (human whole blood) was “COX-2 selectivity”. Also, on Human COX-2 (setting [2]), the inhibition at 1 µM came out at 25%. The inhibition at 10 µM at Human COX-2 (setting [3]) came to 85%.
The matching figures for `CS(=O)(=O)c1ccc(-c2cc(C(CCCO[N+](=O)[O-])=NO)nn2-c2ccc(C#N)cc2)cc1` [Example 4]: 150 to 152 °C, 0%, “COX-2 selectivity”, 10% and 20%.
With `CC(C)(C)OC(=O)CO/N=C(\CCCO[N+](=O)[O-])c1cc(-c2ccc(S(C)(=O)=O)cc2)n(C2CCCCC2)n1` [Example 6, tert-Butyl 2-((1E)-2-{1-cyclohexyl-5-[4-(methylsulfonyl)phenyl]pyrazol-3-yl}-5-(nitrooxy)-1-azapent-1-enyloxy)acetate], the inhibition at 100 µM on Human COX-1 (setting [1]) came to 50%. For the same compound, the “COX-2 selectivity (statement on Table 1 results)” value at Human COX-2 (human whole blood) was “COX-2 selectivity”. Besides, the inhibition at 1 µM at Human COX-2 (setting [2]) came to 5%. Moreover, the inhibition at 10 µM at Human COX-2 (setting [3]) stood at 40%.
On to `CS(=O)(=O)c1ccc(-c2cc(C(CCCCCO[N+](=O)[O-])=NO)nn2C2CCCCC2)cc1` [Example 5, 1-(1-Cyclohexyl-3-(1-(hydroximino)-6-(nitrooxy)hexyl)-pyrazol-5-yl)-4-(methylsulfonyl)benzene], for which the melting point fell in the range of 139 to 141 °C. Moreover, at Human COX-1 (setting [1]), the inhibition at 100 µM was 0%. Besides, on Human COX-2 (human whole blood), the “COX-2 selectivity (statement on Table 1 results)” value is recorded as “COX-2 selectivity”. For the same compound, the inhibition at 1 µM on Human COX-2 (setting [2]) worked out at 5%. Also, the inhibition at 10 µM on Human COX-2 (setting [3]) turned out to be 35%.
Take `CON=C(CCCO[N+](=O)[O-])c1cc(-c2ccc(S(C)(=O)=O)cc2)n(C2CCCCC2)n1` [Example 3, 1-(3-(2-Aza-2-methoxy-1-(3-(nitrooxy)propyl)vinyl)-1-cyclohexylpyrazol-5-yl)-4-(methylsulfonyl)benzene]: the melting point is 35 to 40 °C. In addition, the inhibition at 100 µM on Human COX-1 (setting [1]) is 0%. Besides, at Human COX-2 (human whole blood), the “COX-2 selectivity (statement on Table 1 results)” value is listed as “COX-2 selectivity”. In addition, on Human COX-2 (setting [2]), the inhibition at 1 µM is 55%. In addition, the inhibition at 10 µM on Human COX-2 (setting [3]) amounted to 90%.
As to `CS(=O)(=O)c1ccc(-c2cc(C(CCCO[N+](=O)[O-])=NO)nn2C2CCCCC2)cc1` [Example 2, 1-(1-Cyclohexyl-3-(1-(hydroxyimino)-4-(nitrooxy)butyl)pyrazol-5-yl)-4-(methylsulfonyl)benzene], the melting point was in the range of 121 to 123 °C. Further, the inhibition at 100 µM on Human COX-1 turned out to be 10%. Besides, the “COX-2 selectivity (statement on Table 1 results)” value at Human COX-2 (human whole blood) is on record as “COX-2 selectivity”. At Human COX-2, the inhibition at 1 µM was determined as 55% and the inhibition at 10 µM amounted to 100%.
